In patent US20220135540A1, “POLYMORPHS OF AN FXR AGONIST” (Eli Lilly and Company, priority 2020, published 2022):
Each block holds one compound with its values, some of them ahead of it.

Key:
[1] = Tissue distribution (liver versus plasma and other tissues); type: in vivo; conditions: liver relative to plasma, heart and skin, liver vs plasma, kidney, lungs, read-out: concentration in the liver relative to plasma, kidney, lungs, heart, and skin
Source text: Compound I is preferentially distributed to the liver, which, without being bound by theory, would allow the compound to reach its FXR target in the liver with fewer off-target adverse effects. For example, Compound I has an approximately 20-fold higher concentration in the liver than in the plasma, kidney, lungs, heart, and skin. This trait would likely be particularly beneficial for vulnerable populations, such as children, the elderly, and people with comorbidities.

[2] = Moisture sorption analysis (MSA); type: physicochemical; conditions: for hygroscopicity (overall, from moisture sorption data): 5% to 95% RH; for weight change (loss) between ~95% RH and ~5% RH: desorption step ~95% to ~5% RH; for weight loss upon equilibration at ~5% RH: moisture sorption; for weight change (gain) between ~5% and ~95% RH: sorption step ~5% to ~95% RH
Experimental: MSA analyses were performed using a VTI SGA-100 Vapor Sorption Analyzer. Sorption and desorption data were collected over a range of 5% to 95% relative humidity (RH) at 10% RH intervals under a nitrogen purge. Samples were not dried prior to analysis. Equilibrium criteria used for analysis were less than 0.0100% weight change in 5 minutes, with a maximum equilibration time of 3 hours if the weight criterion was not met. Data were not corrected for the initial moisture content of the samples. NaCl and PVP were used as calibration standards.

[3] = Solid form stability when stressed at high relative humidity; type: physicochemical; conditions: ~94% RH for 10 days
Experimental: Polymorphic Form I of Compound I was obtained by slurrying of Compound I in ethyl acetate or methanol at room temperature, or in a mixture IPA:water 1:1 at ˜58° C. Additionally, Form I was obtained by slow cooling of a solution of Compound I in acetonitrile.

[4] = Slurry interconversion of polymorphic forms; type: physicochemical
Experimental: Slurry interconversion experiments were performed at temperatures ranging from room temperature to ˜81° C. Solvent systems used for the study were nitromethane, acetonitrile, and a THF/heptane 1:2 (v/v) mixture.

SMILES: Cn1cc(C(=O)O)c2ccc(N3CCC(OCc4c(-c5c(Cl)cccc5Cl)noc4C4CC4)CC3)cc21 [Compound I, 6-(4-((5-cyclopropyl-3-(2,6-dichlorophenyl)isoxazol-4-yl)methoxy)piperidin-1-yl)-1-methyl-1H-indole-3-carboxylic acid]
Kp [1]: ~20

SMILES: Cn1cc(C(=O)O)c2ccc(N3CCC(OCc4c(-c5c(Cl)cccc5Cl)noc4C4CC4)CC3)cc21 [Form I, 6-(4-((5-cyclopropyl-3-(2,6-dichlorophenyl)isoxazol-4-yl)methoxy)piperidin-1-yl)-1-methyl-1H-indole-3-carboxylic acid]
hygroscopicity (overall, from moisture sorption data) [2]: low hygroscopicity
weight change (loss) between ~95% RH and ~5% RH [2]: ~0.4 wt %
weight loss upon equilibration at ~5% RH [2]: ~0.1 wt %
weight change (gain) between ~5% and ~95% RH [2]: ~0.4 wt %
stability as a solid form under humidity stress [3]: remained stable

SMILES: Cn1cc(C(=O)O)c2ccc(N3CCC(OCc4c(-c5c(Cl)cccc5Cl)noc4C4CC4)CC3)cc21 [Form II, 6-(4-((5-cyclopropyl-3-(2,6-dichlorophenyl)isoxazol-4-yl)methoxy)piperidin-1-yl)-1-methyl-1H-indole-3-carboxylic acid]
hygroscopicity (overall, from moisture sorption data) [2]: low hygroscopicity
weight change (loss) between ~95% RH and ~5% RH [2]: negligible weight change
weight loss upon equilibration at ~5% RH [2]: ~0.6 wt %
weight change (gain) between ~5% and ~95% RH [2]: negligible weight change
relative stability among polymorphic forms ([4]; ambient temperature and elevated temperature up to ~81° C.): most stable form

SMILES: Cn1cc(C(=O)O)c2ccc(N3CCC(OCc4c(-c5c(Cl)cccc5Cl)noc4C4CC4)CC3)cc21 [I, II, III, IV, V, VI, VII]
XRPD Result of slurry interconversion ([4]; ACN, RT, 1 day, ~5 mg each): Form II
XRPD Result of slurry interconversion ([4]; Nitromethane, RT, 3 days, ~5 mg each): Form II
XRPD Result of slurry interconversion ([4]; Nitromethane, ~78-81° C., 3 days, ~5 mg each): Form II

The remaining lines, values ahead:

XRPD Result of slurry interconversion ([4]; ACN, ~66-69° C., 1 day, ~5 mg each): Form II
SMILES: Cn1cc(C(=O)O)c2ccc(N3CCC(OCc4c(-c5c(Cl)cccc5Cl)noc4C4CC4)CC3)cc21 [I, II, III, V]

XRPD Result of slurry interconversion ([4]; THF/heptane 1:2, ~61° C., 1 day, ~15 mg each): Form II
XRPD Result of slurry interconversion ([4]; THF:heptane 1:2, RT, 1 day, ~15 mg each): Form II
SMILES: Cn1cc(C(=O)O)c2ccc(N3CCC(OCc4c(-c5c(Cl)cccc5Cl)noc4C4CC4)CC3)cc21 [I, II, VI]
